# Reference: ChEMBL document CHEMBL5729210, “Benzodiazepine derivatives as RSV inhibitors” (2022)
# Assay: RSV-A Assay: The description is Japanese.
row,SMILES,EC50
1,O=C1Nc2ccccc2C(c2ccccc2)=N[C@@H]1Nc1nnc(-c2ccc(C(F)(F)F)nc2N2CC3CCC(C2)O3)o1,in the range around 600 nM
2,CN1CCN(c2ncccc2-c2nnc(NC3N=C(c4ccccc4)c4ccccc4NC3=O)o2)CC1 (centres undefined),> 800 nM
3,O=C1Nc2ccccc2C(c2ccccc2)=NC1Nc1nnc(-c2ccccc2-n2cccn2)o1 (centres undefined),> 800 nM
4,O=C1Nc2ccccc2C(c2ccccc2)=NC1Nc1nnc(-c2cccnc2N2C[C@@H]3C[C@H]2CO3)o1 (some centres undefined),> 800 nM
5,O=C1Nc2ccccc2C(c2ccccc2)=NC1Nc1nnc(-c2cccnc2N2C3CCC2COC3)o1 (centres undefined),> 800 nM
6,N#CC1CCN(c2ncccc2-c2nnc(NC3N=C(c4ccccc4)c4ccccc4NC3=O)o2)CC1 (centres undefined),> 800 nM
7,COC1CN(c2cc(C(F)(F)F)cnc2-c2nnc(N[C@H]3N=C(c4ccccc4)c4ccccc4NC3=O)o2)C1,> 800 nM
8,O=C1Nc2ccccc2C(c2ccccc2)=NC1Nc1nnc(-c2ccc(-n3cncn3)cc2)o1 (centres undefined),in the range around 600 nM
9,C[C@@H]1COCCN1c1cc(C#N)ccc1-c1nnc(N[C@H]2N=C(c3ccccc3)c3ccccc3NC2=O)o1,< 400 nM
10,O=C1Nc2ccccc2C(c2ccccc2)=NC1Nc1nnc(-c2ccccc2-c2ccncc2)o1 (centres undefined),> 800 nM
11,Cc1ccc(-c2nnc(N[C@H]3N=C(c4ccccc4)c4ccccc4NC3=O)o2)c(N2CC3CCC(C2)O3)n1,< 400 nM
12,Cc1ccc(-c2nnc(N[C@H]3N=C(c4ccccc4)c4ccccc4NC3=O)o2)c(N2C3CCC2COC3)n1,< 400 nM
13,C[C@H]1COCCN1c1ncccc1-c1nnc(NC2N=C(c3ccccc3)c3ccccc3NC2=O)o1 (some centres undefined),> 800 nM
14,O=C1Nc2ccccc2C(c2ccccc2)=N[C@@H]1Nc1nnc(-c2cccnc2N2CCn3ncnc3C2)o1,> 800 nM
15,O=C1Nc2ccccc2C(c2ccccc2)=N[C@@H]1Nc1nnc(-c2ncc(C(F)(F)F)cc2N2CCC(F)CC2)o1,> 800 nM
16,O=C1Nc2ccccc2C(c2ccccc2)=N[C@@H]1Nc1nnc(-c2ncc(C(F)(F)F)cc2N2C3CCC2COC3)o1,< 400 nM
17,CN1CCN(c2ccc(-c3nnc(NC4N=C(c5ccccc5)c5ccccc5NC4=O)o3)cc2)CC1 (centres undefined),> 800 nM
18,C[C@@H]1COCCN1c1ncccc1-c1nnc(NC2N=C(c3ccccc3)c3ccccc3NC2=O)o1 (some centres undefined),< 400 nM
19,CC1(C)CC(c2nnc(NC3N=C(c4ccccc4)c4ccccc4NC3=O)o2)C1 (centres undefined),> 800 nM
20,O=C1Nc2ccccc2C(c2ccccc2)=NC1Nc1nnc(-c2ccc(-n3cncn3)c(F)c2)o1 (centres undefined),in the range around 600 nM
21,CN[C@H](c1ccccc1)c1nnc(NC2N=C(c3ccccc3)c3ccccc3NC2=O)o1 (some centres undefined),> 800 nM
22,O=C1Nc2ccccc2C(c2ccccc2)=NC1Nc1nnc(C2CCNC2)o1 (centres undefined),> 800 nM
23,O=C1Nc2ccccc2C(c2ccccc2)=NC1Nc1nnc([C@@H]2CCCN2C2CCNCC2)o1 (some centres undefined),> 800 nM

row,SMILES,EC50
1,CN(C)CCOc1ccccc1-c1nnc(NC2N=C(c3ccccc3)c3ccccc3NC2=O)o1 (centres undefined),> 800 nM
2,O=C1Nc2ccccc2C(c2ccccc2)=NC1Nc1nnc([C@@H]2CCCO2)o1 (some centres undefined),> 800 nM
3,O=C1Nc2ccccc2C(c2ccccc2)=NC1Nc1nnc(C2CC(F)(F)C2)o1 (centres undefined),> 800 nM
4,O=C1Nc2ccccc2C(c2ccccc2)=N[C@@H]1Nc1nnc(-c2ccc(C(F)(F)F)nc2N2C3CCC2COC3)o1,> 800 nM
5,COC(=O)c1nc(C)sc1N1CCOCC1,< 400 nM
6,O=C1Nc2ccccc2C(c2ccccc2)=NC1Nc1nnc(-c2ccc(-n3ccnc3)nc2)o1 (centres undefined),> 800 nM
7,CO[C@@H]1CCN(c2ccccc2-c2nnc(NC3N=C(c4ccccc4)c4ccccc4NC3=O)o2)C1 (some centres undefined),> 800 nM
8,O=C1Nc2ccccc2C(c2ccccc2)=NC1Nc1nnc(-c2cccnc2N2CCCC(F)(F)C2)o1 (centres undefined),> 800 nM
9,CC1(c2nnc(NC3N=C(c4ccccc4)c4ccccc4NC3=O)o2)CCNC1 (centres undefined),> 800 nM
10,O=C1Nc2ccccc2C(c2ccccc2)=N[C@@H]1Nc1nnc(-c2cccnc2N2CCOCC2)o1,< 400 nM
11,Cc1cc(-c2nnc(NC3N=C(c4ccccc4)c4ccccc4NC3=O)o2)ccc1-n1cncn1 (centres undefined),in the range around 600 nM
12,O=C1Nc2ccccc2C(c2ccccc2)=N[C@@H]1Nc1nnc(-c2ccc(N3C4CCC3COC4)cc2Cl)o1,> 800 nM
13,N#Cc1ccc(-c2nnc(N[C@H]3N=C(c4ccccc4)c4ccccc4NC3=O)o2)c(N2C3CCC2COC3)c1,< 400 nM
14,Cc1ccc(-c2nnc(N[C@H]3N=C(c4ccccc4)c4ccccc4NC3=O)o2)c(N2CCOC[C@H]2C)n1,< 400 nM
15,O=C1Nc2ccccc2C(c2ccccc2)=NC1Nc1nnc(C2CC3(CCNCC3)C2)o1 (centres undefined),> 800 nM
16,C[C@@H]1CN(c2cc(F)ccc2-c2nnc(N[C@H]3N=C(c4ccccc4)c4ccccc4NC3=O)o2)C[C@H](C)O1,> 800 nM
17,COC1CN(c2ncccc2-c2nnc(NC3N=C(c4ccccc4)c4ccccc4NC3=O)o2)C1 (centres undefined),> 800 nM
18,O=C1Nc2ccccc2C(c2ccccc2)=NC1Nc1nnc(-c2cccnc2N2CCC(F)CC2)o1 (centres undefined),> 800 nM
19,C[C@@H]1CN(c2ncccc2-c2nnc(NC3N=C(c4ccccc4)c4ccccc4NC3=O)o2)CCO1 (some centres undefined),> 800 nM
20,O=C1Nc2ccccc2C(c2ccccc2)=NC1Nc1nnc(CC(F)(F)F)o1 (centres undefined),> 800 nM
21,O=C1Nc2ccccc2C(c2ccccc2)=NC1Nc1nnc(-c2ccc(-n3cncn3)nc2)o1 (centres undefined),> 800 nM
22,O=C1Nc2ccccc2C(c2ccccc2)=NC1Nc1nnc(-c2cccnc2N2CCC(O)CC2)o1 (centres undefined),> 800 nM
23,N#CC1CN(c2ncccc2-c2nnc(NC3N=C(c4ccccc4)c4ccccc4NC3=O)o2)C1 (centres undefined),> 800 nM

row,SMILES,EC50
1,CCOC(=O)c1ncc(C(F)(F)F)cc1-c1ccncc1,> 800 nM
2,CN1CCC(N2CCC[C@H]2c2nnc(NC3N=C(c4ccccc4)c4ccccc4NC3=O)o2)CC1 (some centres undefined),> 800 nM
3,CN1C(=O)C(Nc2nnc(-c3ccc(F)cc3)o2)N=C(c2ccccc2)c2ccccc21 (centres undefined),> 800 nM
4,CC(C)(Cc1ccccc1)c1nnc(NC2N=C(c3ccccc3)c3ccccc3NC2=O)o1 (centres undefined),> 800 nM
5,O=C1Nc2ccccc2C(c2ccccc2)=NC1Nc1nnc(-c2ccc(-n3cccn3)nc2)o1 (centres undefined),> 800 nM
6,O=C1Nc2ccccc2C(c2ccccc2)=NC1Nc1nnc(-c2cccc(-n3ccnc3)c2)o1 (centres undefined),> 800 nM
7,N#Cc1ccc(-c2nnc(N[C@H]3N=C(c4ccccc4)c4ccccc4NC3=O)o2)c(N2CC3CCC(C2)O3)c1,< 400 nM
8,O=C1Nc2ccccc2C(c2ccccc2)=NC1Nc1nnc(-c2ccc(-n3cnnc3)cc2)o1 (centres undefined),> 800 nM
9,COCCOc1ccccc1-c1nnc(NC2N=C(c3ccccc3)c3ccccc3NC2=O)o1 (centres undefined),> 800 nM
10,O=C1Nc2ccccc2C(c2ccccc2)=NC1Nc1nnc(-c2cccnc2N2CC3CCC(C2)O3)o1 (centres undefined),in the range around 600 nM
11,O=C1Nc2ccccc2C(c2ccccc2)=NC1Nc1nnc(C23CCN(CC2)CC3)o1 (centres undefined),> 800 nM
12,C[C@@H]1CN(c2ccc(-c3nnc(N[C@H]4N=C(c5ccccc5)c5ccccc5NC4=O)o3)c(Cl)c2)C[C@H](C)O1,> 800 nM
13,O=C1Nc2ccccc2C(c2ccccc2)=NC1Nc1nnc(C2(F)CC2)o1 (centres undefined),> 800 nM
14,COc1cc(-c2nnc(NC3N=C(c4ccccc4)c4ccccc4NC3=O)o2)ccc1-n1cnc(C)c1 (centres undefined),> 800 nM
15,O=C1Nc2ccccc2C(c2ccccc2)=N[C@@H]1Nc1nnc(-c2ccc(F)cc2N2CC3CCC(C2)O3)o1,in the range around 600 nM
16,O=C1Nc2ccccc2C(c2ccccc2)=NC1Nc1nnc(C2CCOC2)o1 (centres undefined),> 800 nM
17,COC1CCN(c2cc(C(F)(F)F)cnc2-c2nnc(N[C@H]3N=C(c4ccccc4)c4ccccc4NC3=O)o2)CC1,> 800 nM
18,C[C@H]1CN(c2ncccc2-c2nnc(NC3N=C(c4ccccc4)c4ccccc4NC3=O)o2)CCO1 (some centres undefined),in the range around 600 nM
19,O=C1Nc2ccccc2C(c2ccccc2)=NC1Nc1nnc(-c2cccnc2N2CC(F)(F)C2)o1 (centres undefined),> 800 nM
20,C[C@@H]1CN(c2cc(C(F)(F)F)cnc2-c2nnc(N[C@H]3N=C(c4ccccc4)c4ccccc4NC3=O)o2)CCO1,< 400 nM
21,CN(c1nnc(-c2ccc(F)cc2)o1)C1N=C(c2ccccc2)c2ccccc2NC1=O (centres undefined),> 800 nM
22,O=C1Nc2ccccc2C(c2ccccc2)=NC1Nc1nnc(-c2cccnc2N2C[C@H]3COC[C@H]3C2)o1 (some centres undefined),> 800 nM
23,CC1(C)C[C@@H]1c1nnc(NC2N=C(c3ccccc3)c3ccccc3NC2=O)o1 (some centres undefined),> 800 nM

row,SMILES,EC50
1,CO[C@H]1CCN(c2ncccc2-c2nnc(NC3N=C(c4ccccc4)c4ccccc4NC3=O)o2)C1 (some centres undefined),> 800 nM
2,CC1(Nc2nnc(-c3ccc(F)cc3)o2)N=C(c2ccccc2)c2ccccc2NC1=O (centres undefined),> 800 nM
3,O=C1Nc2ccccc2C(c2ccccc2)=NC1Nc1nnc(-c2ccc(-n3ccnc3)cc2)o1 (centres undefined),< 400 nM
4,O=C1Nc2ccccc2C(c2ccccc2)=NC1Nc1nnc(-c2cccnc2N2C[C@H]3C[C@@H]2CO3)o1 (some centres undefined),> 800 nM
5,COCCOc1ccc(C(=O)OC)cc1,> 800 nM
6,O=C1Nc2ccccc2C(c2ccccc2)=NC1Nc1nnc(-c2ccccc2OC2CCOCC2)o1 (centres undefined),> 800 nM
7,O=C1Nc2ccccc2C(c2ccccc2)=NC1Nc1nnc(-c2ccccc2N2CCCOCC2)o1 (centres undefined),> 800 nM
8,Cc1ccc(-c2nnc(N[C@H]3N=C(c4ccccc4)c4ccccc4NC3=O)o2)c(N2CCOCC2)n1,< 400 nM
9,O=C1Nc2ccccc2C(c2ccccc2)=N[C@@H]1Nc1nnc(-c2ncc(C(F)(F)F)cc2N2CC3CCC(C2)O3)o1,< 400 nM
10,O=C1Nc2ccccc2C(c2ccccc2)=NC1Nc1nnc(-c2cccnc2N2CCCCC2)o1 (centres undefined),> 800 nM
11,CN1CCN(c2ccccc2-c2nnc(NC3N=C(c4ccccc4)c4ccccc4NC3=O)o2)CC1 (centres undefined),> 800 nM
12,O=C1Nc2ccccc2C(c2ccccc2)=NC1Nc1nnc(-c2ccc(OC3CCOCC3)cc2)o1 (centres undefined),> 800 nM
13,O=C1Nc2ccccc2C(c2ccccc2)=NC1Nc1nnc(-c2ccccc2N2CCS(=O)(=O)CC2)o1 (centres undefined),> 800 nM
14,O=C1Nc2ccccc2C(c2ccccc2)=NC1Nc1nnc(-c2ccc(-n3ccc(C(F)(F)F)n3)cc2)o1 (centres undefined),> 800 nM
15,Cc1cc(-n2cncn2)ccc1-c1nnc(NC2N=C(c3ccccc3)c3ccccc3NC2=O)o1 (centres undefined),> 800 nM
16,O=C1Nc2ccccc2C(c2ccccc2)=NC1Nc1nnc(-c2ccccc2NCc2ccccn2)o1 (centres undefined),> 800 nM
17,CC(C)(O)c1nnc(NC2N=C(c3ccccc3)c3ccccc3NC2=O)o1 (centres undefined),> 800 nM
18,Cc1nc(-c2nnc(NC3N=C(c4ccccc4)c4ccccc4NC3=O)o2)ccc1C#N (centres undefined),in the range around 600 nM
19,C[C@H]1CN(c2cc(C(F)(F)F)cnc2-c2nnc(N[C@H]3N=C(c4ccccc4)c4ccccc4NC3=O)o2)CCO1,< 400 nM
20,COC1CCN(c2ncccc2-c2nnc(NC3N=C(c4ccccc4)c4ccccc4NC3=O)o2)CC1 (centres undefined),> 800 nM
